Reference: US20240051957A1, “CRYSTALLINE FORM OF HETEROCYCLIC COMPOUND AS PROTEIN KINASE INHIBITOR” (HK INNO.N CORPORATION, priority 2021, published 2024)

Key:
[1] = TGA/SDTA and TGMS analysis; assay type: physicochemical; conditions: heating 25° C. to 300° C. at 10° C./min
Protocol: 3. TGA/SDTA and TGMS Analysis
A mass loss caused by solvent or a moisture loss from crystals was determined by thermogravimetric analysis/simultaneous differential thermal analysis (TGA/SDTA). A weight versus temperature curve was generated by monitoring the weight of samples during heating in a TGA/SDTA851e apparatus (product name, Mettler-Toledo GmbH, Switzerland). TGA/SDTA851e was calibrated with indium and aluminum samples. The sample was placed in a 100 μL aluminum crucible and sealed, and then a pin-hole was drilled therein. The crucible was heated from 25° C. to 300° C. in TGA at a heating rate of 10° C./min. Dry N2 gas was used for purging. The gas coming out of the TGA sample was analyzed by Omnistar GSD 301 T2 (product name, Pfeiffer Vacuum GmbH, Germany), which was a quadrupole mass spectrometer for analyzing a mass in the range of 0-200 amu.

[2] = Physical stability evaluation under stress conditions (XRPD before/after); assay type: physicochemical; conditions: stored at 60° C.±2° C./80% RH±5% for two days, packaged ((LPDE+N2)+silica gel 1 g+LDPE)+Al-Bag
Protocol: 1. XRPD Analysis A plate for obtaining an XRPD pattern was mounted on a Bruker General Area Detector Diffraction System (GADDS) equipped with a VANTEC-500 gas domain detector calibrated for intensity and geometric changes. Calibration of measurement accuracy (peak position) was performed using NIST SRM1976 standard (Corundum). Data collection was performed at room temperature using monochromatic CuKα radiation in a diffraction angle (2θ) region of 1.5° to 41.5°, the most distinct part of the XRPD pattern. The diffraction pattern of each well was collected at two 2θ ranges (1.5°≤2θ≤21.5° for a first frame and 9.5°≤2θ≤41.5° for a second frame) with an exposure time of 90 seconds for each frame. No background subtraction or curve smoothing was applied to the XRPD pattern. The carrier material used in the XRPD analysis was transparent to X-rays.
4. Experiment on Physical Stability Evaluation
Samples were packaged in the form of ((LPDE+N2)+silica gel 1 g+LDPE)+Al-Bag, and stored under stress conditions (60° C.±2° C./80% RH±5%) for two days before evaluation.

| start of thermal decomposition ([1]; TGA) | mass reduction rate (thermogravimetric analysis) ([1]; at 150° C.) [%] | SMILES | change in the XPRD pattern before/after the stress conditions (physical stability) [2] |
| --- | --- | --- | --- |
| about 260 °C | 1.6 | C[C@@H]1CN(C(=O)CC#N)CC=C1c1cc(NC(=O)C2CC2)nc2[nH]ccc12 [(S)-N-(4-(1-(2-cyanoacetyl)-3-methyl-1,2,3,6-tetrahydropyridin-4-yl)-1H-pyrrolo[2,3-b]pyridin-6-yl)cyclopropanecarboxamide] |  |
|  |  | C[C@@H]1CN(C(=O)CC#N)CC=C1c1cc(NC(=O)C2CC2)nc2[nH]ccc12 [Example 1, (S)-N-(4-(1-(2-cyanoacetyl)-3-methyl-1,2,3,6-tetrahydropyridin-4-yl)-1H-pyrrolo[2,3-b]pyridin-6-yl)cyclopropanecarboxamide] | substantially no change in the XPRD pattern |
